Data: patent publication US6461997B1, “Triazole sulfones having herbicidal activity” (Monsanto Technology LLC, priority 1999, dated 2002)

Tests used:
[1] = system: PANMI (wild proso millet); test: Pre-emergence herbicidal activity, warm season; assay type: in vivo, Panicum miliaceum; settings: GR80 = lowest tested rate (300, 100, 30, 10 g/ha) with 80% or greater inhibition; approx. 14 days after treating; 30/21° C.
In short: (§1)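 Seeds were sown in sterilized, fertilized topsoil, covered, and the soil surface was sprayed with compound in 50:50 acetone/water at 300, 100, 30 and 10 g/ha. Pots were held at 30/21 °C day/night (PANMI, DIGSA) or 18/13 °C (ALOMY, POLCO). GR80 came from percent inhibition versus untreated plants at about 14 days.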

SORVU (shattercane) = test: Pre-emergence herbicidal activity, warm season; assay type: in vivo, Sorghum vulgare; settings: GR80 = lowest tested rate (300, 100, 30, 10 g/ha) with 80% or greater inhibition; approx. 14 days after treating; 30/21° C.
In short: (§2)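 Seeds sown in sterilised fertilised topsoil received surface-applied compound in 50:50 acetone/water, typically at 300, 100, 30 and 10 g/ha, then greenhouse-grown at 30/21° C (warm-season species) or 18/13° C (cool-season species). Percent inhibition versus untreated plants was scored at about 14 days, giving GR80; an asterisk marks activity short of 80% at the top rate.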

[2] = system: GALAP (catchweed bedstraw); test: Pre-emergence herbicidal activity, cool season; assay type: in vivo, Galium aparine; settings: lowest tested rate with 80% or greater inhibition; rates 300, 100, 30, 10 g/ha; about 14 days
In short: as §2

POLCO (wild buckwheat) = test: Pre-emergence herbicidal activity, cool season; assay type: in vivo, Polygonum convolvulus; settings: lowest tested rate with 80% or greater inhibition; rates 300, 100, 30, 10 g/ha; about 14 days
In short: as §1

SINAR (wild mustard) = test: Pre-emergence herbicidal activity, cool season; assay type: in vivo, Sinapis arvensis; settings: lowest tested rate with 80% or greater inhibition; rates 300, 100, 30, 10 g/ha; about 14 days
In short: as §2

[3] = system: VERPE (creeping speedwell); test: Pre-emergence herbicidal activity, cool season; assay type: in vivo, Veronica persicaria; settings: lowest tested rate with 80% or greater inhibition; rates 300, 100, 30, 10 g/ha; about 14 days
In short: as §2

SASKR (russian thistle) = test: Pre-emergence herbicidal activity, cool season; assay type: in vivo, Salsola kali; settings: lowest tested rate with 80% or greater inhibition; rates 300, 100, 30, 10 g/ha; about 14 days
In short: as §2

STEME (common chickweed) = test: Pre-emergence herbicidal activity, cool season; assay type: in vivo, Stellaria media; settings: lowest tested rate with 80% or greater inhibition; rates 300, 100, 30, 10 g/ha; about 14 days
In short: as §2

[4] = system: LAMPU (purple deadnettle); test: Pre-emergence herbicidal activity, cool season; assay type: in vivo, Lamium purpureum; settings: lowest tested rate with 80% or greater inhibition; rates 300, 100, 30, 10 g/ha; about 14 days
In short: as §2

ALOMY (blackgrass) = test: Post-emergence herbicidal activity, cool season; assay type: in vivo, Alopecurus myosuroides; settings: abraded plants sprayed at 300, 100, 30 and 10 g/ha; about 14 days after treatment
Protocol: (§3) In another set of tests, the post-emergence activity of compounds of this invention was evaluated on the cool season species listed above. The following procedure was used.
(§4) A pre-prepared topsoil mixture (described above) was placed in a pot and compacted to a depth of 1.0 to 1.25 cm from the top of the pot. Seeds of each of several monocotyledonous and dicotyledonous annual plant species were placed on top of the soil. The seeds were covered with a mixture of 50% topsoil and 50% Rediearth™ in sufficient quantity to level-fill the pots. The pots were then placed on a greenhouse bench and subirrigated as needed.
(§5) When plants growing from the seeds had emerged and reached a suitable growth stage for post-emergence treatment, typically 9 to 14 days after planting, above-ground parts of the plants were subjected to a pre-treatment involving abrasion to create greater opportunity for foliar uptake of subsequently applied compounds. Abrasion was performed using garnet 200w particles applied with a Sears Craftsman hand-held sandblaster operated at approximately 850 kPa (50 psig) pressure.
(§6) A known amount of each test compound dissolved or suspended in an appropriate organic solvent was diluted with a 50:50 mix of acetone and water and applied to the plants by spraying with a standard spray nozzle in a spray volume of […] at a spray pressure of 511 kPa (30 psig). Only the compounds of Examples 1, 8-15 and 17-22 were included in post-emergence tests. Application rates for these compounds were 300, 100, 30 and 10 g/ha. Control plants were abraded but not sprayed.
(§7) After treatment the plants were placed in a greenhouse with an 18/13° C. day/night temperature regime and were subsequently watered as needed for growth. Approximately 14 days after treatment, the plants were observed and herbicidal efficacy recorded as percent inhibition by comparison with control plants. GR80 values were assigned for each compound as described above for the pre-emergence tests.

SETVI (green foxtail) = test: Post-emergence herbicidal activity, cool season; assay type: in vivo, Setaria viridis; settings: abraded plants sprayed at 300, 100, 30 and 10 g/ha; about 14 days after treatment
Protocol: as §3, §4, §5, §6, §7

LOLMG (annual ryegrass) = test: Post-emergence herbicidal activity, cool season; assay type: in vivo, Lolium multiflorum; settings: abraded plants sprayed at 300, 100, 30 and 10 g/ha; about 14 days after treatment
Protocol: as §3, §4, §5, §6, §7

BROTE (downy brome) = test: Post-emergence herbicidal activity, cool season; assay type: in vivo, Bromus tectorum; settings: abraded plants sprayed at 300, 100, 30 and 10 g/ha; about 14 days after treatment
Protocol: as §3, §4, §5, §6, §7

AVEFA (wild oat) = test: Post-emergence herbicidal activity, cool season; assay type: in vivo, Avena fatua; settings: abraded plants sprayed at 300, 100, 30 and 10 g/ha; about 14 days after treatment
Protocol: as §3, §4, §5, §6, §7

[5] = system: AEGCY (jointed goatgrass); test: Post-emergence herbicidal activity, cool season; assay type: in vivo, Aegilops cylindrica; settings: abraded plants sprayed at 300, 100, 30 and 10 g/ha; about 14 days after treatment
Protocol: as §3, §4, §5, §6, §7

[6] = system: AGSST (creeping bentgrass); test: Post-emergence herbicidal activity, cool season; assay type: in vivo, Agrostis stolonifera; settings: abraded plants sprayed at 300, 100, 30 and 10 g/ha; about 14 days after treatment
Protocol: as §3, §4, §5, §6, §7

[7] = system: AGRRE (quackgrass (seedling)); test: Post-emergence herbicidal activity, cool season; assay type: in vivo, Elymus repens; settings: abraded plants sprayed at 300, 100, 30 and 10 g/ha; about 14 days after treatment
Protocol: as §3, §4, §5, §6, §7

[8] = system: CHEAL (common lambsquarters); test: Pre-emergence herbicidal activity, warm season; assay type: in vivo, Chenopodium album; settings: GR80 = lowest tested rate (300, 100, 30, 10 g/ha) with 80% or greater inhibition; approx. 14 days after treating; 30/21° C.
In short: as §2

PANDI (fall panicum) = test: Pre-emergence herbicidal activity, warm season; assay type: in vivo, Panicum dichotomiflorum; settings: GR80 = lowest tested rate (300, 100, 30, 10 g/ha) with 80% or greater inhibition; approx. 14 days after treating; 30/21° C.
In short: as §2

[9] = system: AGSST (creeping bentgrass); test: Pre-emergence herbicidal activity, cool season; assay type: in vivo, Agrostis stolonifera; settings: GR80 = lowest tested rate (300, 100, 30, 10 g/ha) with 80% or greater inhibition; approx. 14 days after treating; 18/13° C.
In short: as §2

Compound	Pre-emergence activity (GR80) PANMI [1]	Pre-emergence activity (GR80) SORVU (SORVU (shattercane))	Pre-emergence activity GR80, GALAP [2]	Pre-emergence activity GR80, POLCO (POLCO (wild buckwheat))	Pre-emergence activity GR80, SINAR (SINAR (wild mustard))	Pre-emergence activity GR80, VERPE [3] [g/ha]	Pre-emergence activity GR80, SASKR (SASKR (russian thistle))	Pre-emergence activity GR80, STEME (STEME (common chickweed))	Pre-emergence activity GR80, LAMPU [4]	Post-emergence activity GR80, ALOMY (ALOMY (blackgrass))	Post-emergence activity GR80, SETVI (SETVI (green foxtail))	Post-emergence activity GR80, LOLMG (LOLMG (annual ryegrass))	Post-emergence activity GR80, BROTE (BROTE (downy brome))	Post-emergence activity GR80, AVEFA (AVEFA (wild oat))	Post-emergence activity GR80, AEGCY [5]	Post-emergence activity GR80, AGSST [6]	Post-emergence activity GR80, AGRRE [7]	Pre-emergence activity (GR80) CHEAL [8] [g/ha]	Pre-emergence activity (GR80) PANDI (PANDI (fall panicum)) [g/ha]	Pre-emergence activity (GR80) AGSST [9] [g/ha]
CCN(CC)C(=O)n1cnc(S(=O)(=O)C(F)(F)SCCOC(C)=O)n1 [Example 21]	* (activity observed, at least at highest rate, but <80% inhibition)	* (activity observed, at least at highest rate, but <80% inhibition)	300 g/ha	[empty]	[empty]	300	[empty]	[empty]	300 g/ha	[empty]	[empty]	[empty]	[empty]	[empty]	[empty]	[empty]	[empty]			
CCN(CC)C(=O)n1cnc(S(=O)(=O)C(F)(F)SCCOC(=O)c2ccccc2)n1 [Example 22]		* (activity observed, at least at highest rate, but <80% inhibition)	[empty]	[empty]	[empty]	300	[empty]	[empty]	[empty]	[empty]	[empty]	[empty]	[empty]	[empty]	[empty]	[empty]	[empty]	300	300	300
